# Experimental data: paper PMC6748410, “A phase 2 study of an oral mTORC1/mTORC2 kinase inhibitor (CC-223) for non-pancreatic neuroendocrine tumors with or without carcinoid symptoms” (PLoS ONE, 2019)
# Tests used:
# [1] = Treatment-related adverse events and tolerability (CTCAE v4.0) in patients with NET; format: in vivo
# Protocol: CC-223 capsules were taken orally once daily in continuous 28-day cycles. An initial cohort started CC-223 at a dose of 45 mg; this was the maximum tolerated dose (MTD) established in phase 1 but, after observing a high rate of dose adjustments due to toxicity among patients with NET, a second cohort started CC-223 at 30 mg. To mitigate toxicity, dosage could be adjusted with either short interruptions, dose level reductions, or every-other-day administration. Treatment was permanently discontinued for disease progression, unmanageable toxicity, patient withdrawal of consent, or other reasons specified by the protocol as requiring study withdrawal.
# Baseline assessments were completed within 28 days prior to first dose of CC-223. Drug tolerability was continuously evaluated until 28 days after the last dose, using clinical event and laboratory test monitoring comprising a conventional hematologic and coagulation (if taking anti-coagulants) panel; serum electrolytes; fasting blood glucose (this also included daily self-monitoring with finger stick samples for the first month and for longer if necessary), HbA1c, insulin, and c-peptide; liver enzymes; serum creatinine; and protein. Others included serum uric acid, amylase and lipase, lipoproteins, thyroid function tests, creatine kinase, and immunoglobulins including T-cell subsets (CD4+ and CD8+). We also performed serial triplicate electrocardiograms (ECGs), periodic left ventricular ejection fraction estimations (echo or multiple gated acquisition [MUGA]), regular physical exams and vital sign measurements (heart rate, blood pressure, respiratory rate, and temperature). Adverse events were coded with Medical Dictionary for Regulatory Activities (MedDRA) version 19.0. Severity of adverse events was classified using the National Cancer Institute Common Terminology Criteria for Adverse Events (CTCAE) version 4.0. A safety review committee provided study oversight.
# [2] = tested on: mTORC1 and mTORC2 biomarkers; assay: Target biomarker inhibition at 15 mg dose level (predicted, not tested); format: in vivo, human; details: 15 mg dose level
# [3] = 30 mg starting dose (n = 23), any grade
# [4] = 45 mg starting dose (n = 24), any grade
compound,measurement,setting,value
CO[C@H]1CC[C@H](N2C(=O)CNc3ncc(-c4ccc(C(C)(C)O)nc4)nc32)CC1 [CC-223],Patients requiring 1 dose reduction,[1]; 30 mg group (n = 23),11 patients
same,Patients requiring 2 dose reductions,[1]; 30 mg group (n = 23),7 patients
same,Patients requiring more than 2 dose reductions,[1]; 30 mg group (n = 23),0 patients
same,Treatment-related adverse event: AST increased,[1]; [3],3 (13.0) n (%)
same,Treatment-related adverse event: Abdominal pain,[1]; [3],2 (8.7) n (%)
same,Treatment-related adverse event: Asthenia,[1]; [3],7 (30.4) n (%)
same,Treatment-related adverse event: Blood creatinine increased,[1]; [3],4 (17.4) n (%)
same,Treatment-related adverse event: Decreased appetite,[1]; [3],4 (17.4) n (%)
same,Treatment-related adverse event: Dehydration,[1]; [3],4 (17.4) n (%)
same,Treatment-related adverse event: Diarrhea,[1]; [3],17 (73.9) n (%)
same,Treatment-related adverse event: Dry mouth,[1]; [3],2 (8.7) n (%)
same,Treatment-related adverse event: Dysgeusia,[1]; [3],3 (13.0) n (%)
same,Treatment-related adverse event: Fatigue,[1]; [3],17 (73.9) n (%)
same,Treatment-related adverse event: Hyperglycemia,[1]; [3],5 (21.7) n (%)
same,Treatment-related adverse event: Maculopapular rash,[1]; [3],3 (13.0) n (%)
same,Treatment-related adverse event: Malaise,[1]; [3],3 (13.0) n (%)
same,Treatment-related adverse event: Mucosal inflammation,[1]; [3],3 (13.0) n (%)
same,Treatment-related adverse event: Nausea,[1]; [3],6 (26.1) n (%)
same,Treatment-related adverse event: Pruritus,[1]; [3],7 (30.4) n (%)
same,Treatment-related adverse event: Rash,[1]; [3],6 (26.1) n (%)
same,Treatment-related adverse event: Rash macular,[1]; [3],2 (8.7) n (%)
same,Treatment-related adverse event: Stomatitis,[1]; [3],11 (47.8) n (%)
same,Treatment-related adverse event: Vomiting,[1]; [3],2 (8.7) n (%)
same,Patients requiring 1 dose reduction,[1]; 45 mg group (n = 24),3 patients
same,Patients requiring more than 2 dose reductions,[1]; 45 mg group (n = 24),2 patients
same,Tolerability in the NET cohort,[1]; 45 mg once daily,not well-tolerated
same,Treatment-related adverse event: AST increased,[1]; [4],2 (8.3) n (%)
same,Treatment-related adverse event: Abdominal pain,[1]; [4],3 (12.5) n (%)
same,Treatment-related adverse event: Asthenia,[1]; [4],4 (16.7) n (%)
same,Treatment-related adverse event: Blood creatinine increased,[1]; [4],3 (12.5) n (%)
same,Treatment-related adverse event: Decreased appetite,[1]; [4],8 (33.3) n (%)
same,Treatment-related adverse event: Dehydration,[1]; [4],4 (16.7) n (%)
same,Treatment-related adverse event: Diarrhea,[1]; [4],19 (79.2) n (%)
same,Treatment-related adverse event: Dry mouth,[1]; [4],5 (20.8) n (%)
same,Treatment-related adverse event: Dysgeusia,[1]; [4],5 (20.8) n (%)
same,Treatment-related adverse event: Fatigue,[1]; [4],14 (58.3) n (%)
same,Treatment-related adverse event: Hyperglycemia,[1]; [4],8 (33.3) n (%)
same,Treatment-related adverse event: Maculopapular rash,[1]; [4],9 (37.5) n (%)
same,Treatment-related adverse event: Malaise,[1]; [4],4 (16.7) n (%)
same,Treatment-related adverse event: Mucosal inflammation,[1]; [4],3 (12.5) n (%)
same,Treatment-related adverse event: Nausea,[1]; [4],12 (50.0) n (%)
same,Treatment-related adverse event: Pruritus,[1]; [4],12 (50.0) n (%)
same,Treatment-related adverse event: Rash,[1]; [4],12 (50.0) n (%)
same,Treatment-related adverse event: Rash macular,[1]; [4],4 (16.7) n (%)
same,Treatment-related adverse event: Stomatitis,[1]; [4],14 (58.3) n (%)
same,Treatment-related adverse event: Vomiting,[1]; [4],5 (20.8) n (%)
same,Patients with one or more serious adverse event related to CC-223,[1]; 8 of 47 patients,17%
same,Patients who remained on the dose initially assigned,[1]; 12 of 47 patients,26%
same,Treatment-related adverse event: AST increased,"[1]; Any dose (N = 47), Grade 3",2 (4.3) n (%)
same,Treatment-related adverse event: Abdominal pain,"[1]; Any dose (N = 47), Grade 3",1 (2.1) n (%)
same,Treatment-related adverse event: Asthenia,"[1]; Any dose (N = 47), Grade 3",3 (6.4) n (%)
same,Treatment-related adverse event: Blood creatinine increased,"[1]; Any dose (N = 47), Grade 3",1 (2.1) n (%)
same,Treatment-related adverse event: Decreased appetite,"[1]; Any dose (N = 47), Grade 3",1 (2.1) n (%)
same,Treatment-related adverse event: Dehydration,"[1]; Any dose (N = 47), Grade 3",1 (2.1) n (%)
same,Treatment-related adverse event: Diarrhea,"[1]; Any dose (N = 47), Grade 3",18 (38.3) n (%)
same,Treatment-related adverse event: Dry mouth,"[1]; Any dose (N = 47), Grade 3",0 n (%)
same,Treatment-related adverse event: Dysgeusia,"[1]; Any dose (N = 47), Grade 3",0 n (%)
same,Treatment-related adverse event: Fatigue,"[1]; Any dose (N = 47), Grade 3",10 (21.3) n (%)
same,Treatment-related adverse event: Hyperglycemia,"[1]; Any dose (N = 47), Grade 3",0 n (%)
same,Treatment-related adverse event: Maculopapular rash,"[1]; Any dose (N = 47), Grade 3",3 (6.4) n (%)
same,Treatment-related adverse event: Malaise,"[1]; Any dose (N = 47), Grade 3",0 n (%)
same,Treatment-related adverse event: Mucosal inflammation,"[1]; Any dose (N = 47), Grade 3",0 n (%)
same,Treatment-related adverse event: Nausea,"[1]; Any dose (N = 47), Grade 3",1 (2.1) n (%)
same,Treatment-related adverse event: Pruritus,"[1]; Any dose (N = 47), Grade 3",2 (4.3) n (%)
same,Treatment-related adverse event: Rash,"[1]; Any dose (N = 47), Grade 3",1 (2.1) n (%)
same,Treatment-related adverse event: Rash macular,"[1]; Any dose (N = 47), Grade 3",1 (2.1) n (%)
same,Treatment-related adverse event: Stomatitis,"[1]; Any dose (N = 47), Grade 3",5 (10.6) n (%)
same,Treatment-related adverse event: Vomiting,"[1]; Any dose (N = 47), Grade 3",2 (4.3) n (%)
same,Treatment-related adverse event: AST increased,"[1]; Any dose (N = 47), any grade",5 (10.6) n (%)
same,Treatment-related adverse event: Abdominal pain,"[1]; Any dose (N = 47), any grade",5 (10.6) n (%)
same,Treatment-related adverse event: Asthenia,"[1]; Any dose (N = 47), any grade",11 (23.4) n (%)
same,Treatment-related adverse event: Blood creatinine increased,"[1]; Any dose (N = 47), any grade",7 (14.9) n (%)
same,Treatment-related adverse event: Decreased appetite,"[1]; Any dose (N = 47), any grade",12 (25.5) n (%)
same,Treatment-related adverse event: Dehydration,"[1]; Any dose (N = 47), any grade",8 (17.0) n (%)
same,Treatment-related adverse event: Diarrhea,"[1]; Any dose (N = 47), any grade",36 (76.6) n (%)
same,Treatment-related adverse event: Dry mouth,"[1]; Any dose (N = 47), any grade",7 (14.9) n (%)
same,Treatment-related adverse event: Dysgeusia,"[1]; Any dose (N = 47), any grade",8 (17.0) n (%)
same,Treatment-related adverse event: Fatigue,"[1]; Any dose (N = 47), any grade",31 (66.0) n (%)
same,Treatment-related adverse event: Hyperglycemia,"[1]; Any dose (N = 47), any grade",13 (27.7) n (%)
same,Treatment-related adverse event: Maculopapular rash,"[1]; Any dose (N = 47), any grade",12 (25.5) n (%)
same,Treatment-related adverse event: Malaise,"[1]; Any dose (N = 47), any grade",7 (14.9) n (%)
same,Treatment-related adverse event: Mucosal inflammation,"[1]; Any dose (N = 47), any grade",6 (12.8) n (%)
same,Treatment-related adverse event: Nausea,"[1]; Any dose (N = 47), any grade",18 (38.3) n (%)
same,Treatment-related adverse event: Pruritus,"[1]; Any dose (N = 47), any grade",19 (40.4) n (%)
same,Treatment-related adverse event: Rash,"[1]; Any dose (N = 47), any grade",18 (38.3) n (%)
same,Treatment-related adverse event: Rash macular,"[1]; Any dose (N = 47), any grade",6 (12.8) n (%)
same,Treatment-related adverse event: Stomatitis,"[1]; Any dose (N = 47), any grade",25 (53.2) n (%)
same,Treatment-related adverse event: Vomiting,"[1]; Any dose (N = 47), any grade",7 (14.9) n (%)
same,Most common TRAEs: asthenia,"[1]; any grade, n = 47",23%
same,Most common TRAEs: decreased appetite,"[1]; any grade, n = 47",26%
same,Most common TRAEs: diarrhea,"[1]; any grade, n = 47",77%
same,Most common TRAEs: fatigue,"[1]; any grade, n = 47",66%
same,Most common TRAEs: hyperglycemia,"[1]; any grade, n = 47",28%
same,Most common TRAEs: maculopapular rash,"[1]; any grade, n = 47",26%
same,Most common TRAEs: nausea,"[1]; any grade, n = 47",38%
same,Most common TRAEs: pruritus,"[1]; any grade, n = 47",40%
same,Most common TRAEs: rash,"[1]; any grade, n = 47",38%
same,Most common TRAEs: stomatitis,"[1]; any grade, n = 47",53%
same,Patients who reported at least one treatment-related adverse event (TRAE),"[1]; by investigator determination, n = 47",98%
same,Patients with doses reduced for extended periods to levels as low as 15 mg,"[1]; human, in vivo",45%
same,Deaths on study due to treatment-related toxicity,[1]; n = 47,No patient died
same,Grade 3 or higher toxicity: diarrhea,[1]; n = 47,38%
same,Grade 3 or higher toxicity: fatigue,[1]; n = 47,21%
same,Grade 3 or higher toxicity: stomatitis,[1]; n = 47,11%
same,Grade 4 or 5 toxicities among the most common adverse events,[1]; n = 47,no grade 4 or 5 toxicities reported
same,Patients who discontinued CC-223 because of toxicity,[1]; n = 47,13%
same,Patients who experienced grade 3 or 4 treatment-related events,[1]; n = 47,79%
same,Patients who required dose adjustments due to toxicity,[1]; n = 47,85%
same,Toxicity causing discontinuation: decreased appetite,[1]; n = 47,6%
same,Toxicity causing discontinuation: diarrhea,[1]; n = 47,9%
same,Toxicity causing discontinuation: nausea,[1]; n = 47,4%
same,Toxicity requiring dose adjustments: diarrhea,[1]; n = 47,40%
same,Toxicity requiring dose adjustments: fatigue,[1]; n = 47,17%
same,Toxicity requiring dose adjustments: increased blood creatinine,[1]; n = 47,13%
same,Toxicity requiring dose adjustments: stomatitis,[1]; n = 47,17%
same,Patients requiring 2 dose reductions,"[1]; overall, n = 47",19 patients
same,Patients requiring more than 2 dose reductions,"[1]; overall, n = 47",4 patients
same,Mean time to first dose reduction,"[1]; overall, range 8–589 days",46 days
same,Target biomarker inhibition,[2],modest
